The CheMixHub viscosity set

Assay: xn = mol fraction of the nth substance listed

CC(=O)c1ccccc1 + ClCCCl
298.15 K, 101 kPa
Details	viscosity [mPa·s]
x2 = 0.1118	1.531
x2 = 0.3581	1.283
x2 = 0.6942	0.993

FCC(F)(F)F + FC(F)C(F)(F)F
viscosity [mPa·s], 101 kPa
Details	x1 = 0.25	x1 = 0.5	x1 = 0.746
298.15 K	0.158	0.1739	0.1862
313.15 K	0.1263	0.1395	0.151

FCC(F)(F)F + FCF
viscosity [mPa·s], 101 kPa
Details	x1 = 0.245	x1 = 0.518	x1 = 0.756
298.15 K	0.1241	0.1379	0.1592
313.15 K	0.1031	0.1152	0.129

CC(C)C[C@H](NC(=O)CN)C(=O)O + O
viscosity [mPa·s], 100 kPa
Details	x1 = 0.000362	x1 = 0.000727	x1 = 0.00109	x1 = 0.00145	x1 = 0.00179	x1 = 0.002245	x1 = 0.002699
293.15 K	1.015	1.029	1.042	1.054	1.067	1.083	1.1
298.15 K	0.9019	0.9133	0.9246	0.9358	0.9464	0.9607	0.9749
303.15 K	0.8072	0.817	0.8268	0.8363	0.8455	0.8577	0.8698
308.15 K	0.7277	0.7362	0.7447	0.753	0.761	0.7717	0.7823
313.15 K	0.6605	0.668	0.6755	0.6828	0.6898	0.6992	0.7085

C[N+](C)(C)CCO.O=C([O-])CC(=O)O + O
viscosity [mPa·s], 100 kPa
Details	x2 = 0.01	x2 = 0.17	x2 = 0.22	x2 = 0.38	x2 = 0.5	x2 = 0.58	x2 = 0.632	x2 = 0.673	x2 = 0.864
293.15 K	12050	4381	3565	1377	622.1	312.8	206.3	145.4	14.3
298.15 K	7430	2850	2316	941.2	438.7	227	152.2	108.9	11.9
303.15 K	4675	1908	1563	651	317.1	168.5	114.7	83.2	9.9
308.15 K	3076	1312	1084	467.9	234.5	127.7	88.2	64.8	8.4
313.15 K	2089	924.5	770	343.9	177.1	98.6	69	51.3	7
318.15 K	1453	666.7	559.7	257.6	136.3	77.5	54.9	41.2	6.2
323.15 K	1034	491	415.2	199.7	106.8	61.8	44.4	33.6	5.4
